Results taken from patent US12398355B2, “Micro physiological model for neuronal and muscular diseases and disorders” (Massachusetts Institute of Technology, priority 2019, dated 2025).

Columns and labels:
in vitro co-culture = assay: Side effects of high drug concentrations in in vitro co-culture; assay type: cell-based; details: in vitro co-culture condition
[1] = tested on: ALS motor unit (iALS-MN spheroid and iPSC-derived skeletal muscle fiber bundle); assay: Drug treatment of ALS motor unit model, muscle contraction by optical stimulation; assay type: cell-based, human; details: 1-Hz optical stimulation, n=180; untreated ALS ~32.3%
Experimental: Epifluorescence and confocal images were acquired using a Zeiss Axiovert 200 microscope and an Olympus FV-1000 confocal microscope, respectively. 3D reconstruction and analysis of confocal images were performed with IMARIS software (Bitplane). Muscle contraction measurement was performed in a stage-top incubator (INUBG2TF-WSKM-SET, Tokai Hit) on Axiovert 200, and image sequences were captured using AxioVision. Automated tracking of the local deformation of the skeletal muscle cells and deflection of the pillars upon light excitation were carried out using ImageJ and Python script with an OpenCV package. Formulas for calculating muscle contraction force from pillar displacements include:
To avoid single-cell attachment to the glass bottom, the microfluidic device was incubated with 4% Pluronic F-127 (Sigma) in the incubator for 1 hour, rinsed with distilled water, and dried. […]
hESC-derived NSCs and iPSC-derived NSCs from a patient with sporadic ALS were infected with an AAV-CAG-ChR2H134R-tdTomato-WPRE plasmid to express a mutated variant of the light-sensitive ion channel, channelrhodopsin-2H134R. […] The cells were cultured for 4 days, expanded for another 3 days, and sorted by fluorescence-activated cell sorting (BD Biosciences, FACSAria II) with strong expression of tdTomato. […]

[2] = tested on: 3D motor unit model (hESC-derived MN spheroid and iPSC-derived skeletal muscle fiber bundle with NMJ); assay type: cell-based, human
[3] = tested on: 3D motor unit model (MN spheroid and skeletal muscle fiber bundle)

## COc1cc(Nc2c(C#N)cnc3cc(OCCCN4CCN(C)CC4)c(OC)cc23)c(Cl)cc1Cl [bosutinib]
In vitro co-culture
  concentration that can cause side effects: over 800 uM

## CO[C@H]1C[C@@H]2CC[C@@H](C)[C@@](O)(O2)C(=O)C(=O)N2CCCC[C@H]2C(=O)O[C@H]([C@H](C)C[C@@H]2CC[C@@H](O)[C@H](OC)C2)CC(=O)[C@H](C)/C=C(\C)[C@@H](O)[C@@H](OC)C(=O)[C@H](C)C[C@H](C)/C=C/C=C/C=C/1C [rapamycin]
[1]
  missed muscle contractions after light stimulation: ~16.1%
In vitro co-culture
  concentration that can cause side effects: over 1 uM

## NC1=N[C@H](O)[C@H]2[C@H]3O[C@]4(O)O[C@@H]([C@@H](O)[C@@]2(N1)[C@@H]4O)[C@]3(O)CO [TTX, tetrodotoxin]
[2]
  muscle contraction after rinsing away the TTX: partially recovered
  muscle contraction under TTX: completely prevented muscle contraction

## N[C@@H](CCC(=O)O)C(=O)O [glutamic acid]
[3]
  average contraction force: ~0.5 pN
  average frequency of muscle contractions: 0.7 Hz
  morphology after prolonged treatment: neurite regression and muscle atrophy
  muscle contraction after prolonged treatment: no muscle contraction was observed
  muscle contraction force: relatively decreased
  muscle contraction frequency: dropped
  muscle contraction with chemical stimulation: significant loss of function
  muscle contraction with electrical stimulation: no significant difference
  neurotoxic effect / myotoxicity: mainly caused a neurotoxic effect but no observable myotoxicity

## α-bungarotoxin [αBTX]
[2]
  muscle contraction in the presence of αBTX: completely inhibited
